Data on 3 molecules can be found in publication PMC7253177, “Gain of channel function and modified gating properties in TRPM3 mutants causing intellectual disability and epilepsy” (eLife, 2020).

The test system of one test is WT:V990M TRPM3 mixture. In words: Whole-cell patch clamp, HEK293T cells co-transfected with WT and V990M TRPM3 (1:1). Format: cell-based, human. Conditions: WT:V990M 1:1; Clt 10 µM. From the text:
(§1) Considering that all reported DEE patients were heterozygous for the TRPM3 substitutions ([Dyment et al., 2019]), and that TRPM3 is functional as a tetramer, it can be expected that patient cells express a mixture of WT and mutant channel subunits, potentially leading to the formation of heteromultimeric channels with variable stoichiometry. To mimic the heterozygous condition in vitro, we performed a limited number of experiments in cells co-transfected with a mixture of cDNA encoding WT and mutant TRPM3 in a 1:1 ratio.
(§2) HEK293T cells ([Graham et al., 1977]) were cultured as described previously ([Vriens et al., 2007]) and used up in passage number 14. HEK293T cells were tested for the lack of mycoplasma and transiently transfected with 2 µg of DNA using TransIT transfection reagent (Mirus) 36–48 hr before the measurements. In case of co-cultures a ratio of 1:1 between hTRPM3-YFP WT and mutants-YFP DNA was used.
(§3) Standard whole-cell patch-clamp recordings were performed with an EPC-10 amplifier and the PatchMasterPro Software (HEKA Elektronik, Lambrecht, Germany). Current measurements were performed at a sampling rate of 20 kHz and currents were digitally filtered at 2.9 kHz. In all measurements, 70% of the series resistance was compensated. […]

A further test concerns WT:P1090Q TRPM3 mixture. In words: Whole-cell patch clamp, HEK293T cells co-transfected with WT and P1090Q TRPM3 (1:1). Format: cell-based, human. To be noted: WT:P1090Q 1:1; Clt 10 µM, PS 40 µM.
Source text: as §1, §2, §3
(In general: Patch clamp records ionic current or voltage across a cell membrane.)

The target of another test is T1, WT human TRPM3 (Homo sapiens, UniProt Q9HCF6).
T1 construct: expressed in transfected cells; host or cells: HEK293T
T1 sequence (Q9HCF6 1-1325 isoform Q9HCF6-10): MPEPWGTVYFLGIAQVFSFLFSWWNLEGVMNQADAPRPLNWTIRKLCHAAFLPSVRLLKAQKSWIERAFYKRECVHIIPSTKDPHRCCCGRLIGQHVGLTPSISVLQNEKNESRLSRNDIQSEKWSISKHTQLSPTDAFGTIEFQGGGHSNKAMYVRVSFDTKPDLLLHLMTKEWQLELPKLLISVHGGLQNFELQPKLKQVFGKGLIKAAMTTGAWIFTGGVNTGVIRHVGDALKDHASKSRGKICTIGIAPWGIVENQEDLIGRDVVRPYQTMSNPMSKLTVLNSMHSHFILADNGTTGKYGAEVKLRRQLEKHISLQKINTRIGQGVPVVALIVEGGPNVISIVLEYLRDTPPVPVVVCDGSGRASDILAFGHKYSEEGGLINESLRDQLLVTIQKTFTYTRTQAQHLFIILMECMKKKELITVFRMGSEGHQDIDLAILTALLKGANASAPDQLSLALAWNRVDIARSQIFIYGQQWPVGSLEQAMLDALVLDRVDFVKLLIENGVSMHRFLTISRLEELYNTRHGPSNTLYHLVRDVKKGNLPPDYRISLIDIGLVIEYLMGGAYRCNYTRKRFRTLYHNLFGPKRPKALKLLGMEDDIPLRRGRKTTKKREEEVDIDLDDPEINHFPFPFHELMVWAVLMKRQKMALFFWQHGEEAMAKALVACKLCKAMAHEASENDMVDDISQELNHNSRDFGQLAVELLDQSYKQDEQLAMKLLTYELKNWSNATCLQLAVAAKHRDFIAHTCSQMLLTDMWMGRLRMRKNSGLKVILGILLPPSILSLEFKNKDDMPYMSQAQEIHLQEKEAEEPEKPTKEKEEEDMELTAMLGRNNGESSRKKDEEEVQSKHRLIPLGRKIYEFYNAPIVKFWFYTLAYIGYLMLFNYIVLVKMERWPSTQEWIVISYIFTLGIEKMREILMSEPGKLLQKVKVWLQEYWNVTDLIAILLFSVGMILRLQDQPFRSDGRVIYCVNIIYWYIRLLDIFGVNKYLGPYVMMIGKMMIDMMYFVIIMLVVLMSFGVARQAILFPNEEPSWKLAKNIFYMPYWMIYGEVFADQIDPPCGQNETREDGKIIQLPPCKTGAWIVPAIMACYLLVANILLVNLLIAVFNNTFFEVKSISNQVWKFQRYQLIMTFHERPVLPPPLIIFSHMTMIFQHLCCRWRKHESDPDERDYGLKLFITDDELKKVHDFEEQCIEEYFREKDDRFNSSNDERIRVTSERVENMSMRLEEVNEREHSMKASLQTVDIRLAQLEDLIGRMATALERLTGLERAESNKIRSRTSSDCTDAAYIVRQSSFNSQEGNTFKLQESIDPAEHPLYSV
In words: Fura-2-based calcium imaging, HEK293T cells transfected with WT hTRPM3. Format: cell-based. How it is done:
as §2
Changes in intracellular calcium concentration were monitored using ratiometric Fura-2-based fluorimetry. Cells were loaded with 2 µM Fura-2-acetoxymethyl ester (Alexis Biochemicals) for 30 min at 37°C. Fluorescence was measured during alternating illumination at 340 and 380 nm using Eclipse Ti (Nikon) fluorescence microscopy system, and absolute calcium concentration was calculated from the ratio of the fluorescence signals at these two wavelengths (R = F340/F380) as [Ca^2+]=Km × (R-Rmin)/(Rmax-R), where Km, Rmin and Rmax were estimated from in vitro calibration experiments with known calcium concentrations. The bath solution contained (in mM) 138 NaCl, 5.4 KCl, 2 CaCl2, 2 MgCl2, 10 glucose, and 10 HEPES, pH 7.4. […] The chemical ligands were dissolved in bath solution from a stock diluted in DMSO.

On to `Clc1ccccc1C(c1ccccc1)(c1ccccc1)n1ccnc1` [Clt, clotrimazole], for which the “Activation of whole-cell currents in the absence of PS” value with WT:V990M TRPM3 mixture is reported as “activated robust currents”. Also, in the test with WT:P1090Q TRPM3 mixture, the “Effect of pre-incubation on PS responses (whole-cell currents)” value is listed as “first a potentiation of the PS responses by pre-incubation of Clt, followed by a time-dependent current inhibition”.

In the case of `CCC1(c2ccccc2)C(=O)NCNC1=O` [primidone], the “Effect on basal [Ca2+]i” value at WT human TRPM3 (primidone 100 µM, isosakuranetin 50 µM) is “reduced [Ca^2+]i”.

For the molecule pregnenolone sulfate [PS], on WT human TRPM3, the “PS concentration required to induce a detectable calcium response” value came out at 10 µM.
